Entries after “also recorded” stand apart in the source; their conditions may differ. Blank lines part the entries; values can stand above or below the molecule they belong to.
Columns and labels:
[1] = Stability assessment: 1:1 mixture of Form α and anhydrous Form A stirred in tetrahydrofuran, solid tested by XRPD; format: physicochemical; conditions: 25° C. and 50° C.
Description: Form α of the present disclosure and anhydrous Form A in CN103648499A were mixed with a mass ratio of 1:1 and stirred in tetrahydrofuran at 5° C., 25° C. and 50° C. at a rate of 500 r/min for 24 h.

[2] = cited from earlier work
[3] = Hygroscopicity assessment by dynamic vapor sorption (DVS); format: physicochemical; conditions: 25° C.; for Weight gain under 80% RH: DVS, 10 mg
Description: Dynamic Vapor Sorption (DVS) was measured via Dynamic Vapor Sorption Intrinsic manufacture by SMS's (Surface Measurement Systems Ltd.). Typical Parameters for DVS test were listed below.
Gas and flow rate: N2, 200 mL/min
RH range: 0% RH to 95% RH
Hygroscopicity of 10 mg Form α of the present invention was tested using dynamic vapor sorption (DVS).
About hygroscopicity characterization description and definition of hygroscopicity (Chinese Pharmacopoeia 2010 edition appendix XIXJ Drug hygroscopic test guidelines, test at 25° C.±1, 80% Relative Humidity) • deliquescent: sufficient water is absorbed to form a liquid; • very hygroscopic: increase in mass is equal to or greater than 15 percent; • hygroscopic: increase in mass is less than 15 percent and equal to or greater than 2 percent; • slightly hygroscopic: increase in mass is less than 2 percent and equal to or greater than 0.2 percent; • no or almost no hygroscopic: increase in mass is less than 0.2%.

- Form conversion on stirring ([1]; at 5° C., tetrahydrofuran, 24 h): converted to Form α
SMILES: C[C@H](Nc1ncnc2[nH]cnc12)c1cc2cccc(Cl)c2c(=O)n1-c1ccccc1 [Form A, (S)-3-(1-(9H-purin-6-ylamino)ethyl)-8-chloro-2-phenylisoquinolin-1(2H)-one]

SMILES: C[C@H](Nc1ncnc2[nH]cnc12)c1cc2cccc(Cl)c2c(=O)n1-c1ccccc1 [Form C, (S)-3-(1-(9H-purin-6-ylamino)ethyl)-8-chloro-2-phenylisoquinolin-1(2H)-one]
- Crystallinity after grinding [2]: decrease or turns into amorphous

- Weight gain under 80% RH ([3]; listed as Crystalline Form α of compound of Formula (I)): 0.67%
- Weight gain under 80% RH ([3]; listed as crystalline Form α): 0.67%
SMILES: C[C@H](Nc1ncnc2[nH]cnc12)c1cc2cccc(Cl)c2c(=O)n1-c1ccccc1 [Form α, (S)-3-(1-(9H-purin-6-ylamino)ethyl)-8-chloro-2-phenylisoquinolin-1(2H)-one]
- Hygroscopicity according to hygroscopic test guidelines ([3]; Chinese Pharmacopoeia 2010 definition, 80% Relative Humidity): slightly hygroscopic (increase in mass is less than 2 percent and equal to or greater than 0.2 percent)
- Stability relative to anhydrous Form A in CN103648499A ([1]; conclusion from stirring the mixture at 5° C.): more thermodynamic stable than Form A in CN103648499A; also recorded: more stable than anhydrous Form A in CN103648499A

Source: patent publication US10196395B2, “Crystalline form alpha of IPI-145 and preparation method thereof” (CRYSTAL PHARMATECH CO., LTD., priority 2015, dated 2019)
